Read-outs that look alike come from different tables or passages of the source.
Key:
M. bovis bovinus 8 [1] = assay type: in vivo, mice
M. bovis bovinus 8 [2] = assay type: in vivo, mice; remark: listed apart in the source
M. bovis bovinus 8 [3] = assay type: in vivo, mice; details: combination of the new treatment with the TB drug
[4] = in vivo; cited from earlier work
M. bovis bovinus 8 [5] = assay type: in vivo, rabbits; details: for Body weight ITE (%): 15 mg/kg
[6] = tested on: Mycobacteria tuberculosis; assay: Tuberculostatic activity compared with the prototype drug; details: in comparison with the prototype drug
Stability during storage = assay type: physicochemical
M. bovis bovinus 8 [7] = assay type: cell-based
M. bovis bovinus 8 [8] = tested on: M. bovis bovinus 8; parameters: species or system mice; details: mouse, in vivo
[9] = tested on: gram-positive and gram-negative microorganisms; assay type: cell-based
M. tuberculosis Erdman = assay: Double serial dilution, growth of drug-sensitive test strain; assay type: cell-based; parameters: key to Degree of mycobacterial growth: primary inhibition of mycobacterial growth (++); details: for Degree of mycobacterial growth: 10^6 cells/ml
[10] = tested on: M. tuberculosis “Academia”; assay: as above; assay type: cell-based; parameters: key to Degree of mycobacterial growth: primary inhibition of mycobacterial growth (++)
M. tuberculosis H37Rv = assay: as above; assay type: cell-based; parameters: key to Degree of mycobacterial growth: primary inhibition of mycobacterial growth (++)
General toxicity = assay type: in vivo
[11] = Allergenic, immunotoxic and mutagenic properties
[12] = Embryo toxicity, teratogenicity and reproductive function; assay type: in vivo, animals
[13] = TB drug combined with the new treatment (20 mg/kg, per os) vs TB drug monotherapy, mice, 42 days
[14] = TB drug combined with the new treatment (20 mg/kg, per os) vs TB drug monotherapy, mice, 42 days of treatment
[15] = new treatment in combination with the TB drug, compared to monotherapy with the new treatment alone
[16] = rabbits, 15 mg/kg per os, vs infection control
[17] = 3.125 μg/ml in medium, 10^6 cells/ml

SMILES: NCC[C@H](O)C(=O)N[C@@H]1C[C@H](N)[C@@H](O[C@H]2O[C@H](CN)[C@@H](O)[C@H](O)[C@H]2O)[C@H](O)[C@H]1O[C@H]1O[C@H](CO)[C@@H](O)[C@H](N)[C@H]1O [Amycacin, amycacin]
- decrease in the coefficient of liver weight (M. bovis bovinus 8 [1]; mouse, in vivo): 34.6%
- decrease in the index of lung damage (M. bovis bovinus 8 [1]; mouse, in vivo): 1.8%
- effect of combination on therapeutic effectiveness, in words (M. bovis bovinus 8 [1]; mouse, in vivo): increased the therapeutic effectiveness
- increase in therapeutic effectiveness (average of indices of organ damage) (M. bovis bovinus 8 [1]; mouse, in vivo): 11.34%
- Scored sum of area: Breathing lung tissue (M. bovis bovinus 8 [2]; mouse, in vivo): 17.7
- Scored sum of area: Dense lymphocytic infiltrate (M. bovis bovinus 8 [2]; mouse, in vivo): 3.12
- Scored sum of area: Desquamative pneumonia (M. bovis bovinus 8 [2]; mouse, in vivo): 2.94
- Scored sum of area: Polymorpho cellular infiltrate (M. bovis bovinus 8 [2]; mouse, in vivo): 0
- Scored sum of area: Total lung tissue (M. bovis bovinus 8 [2]; mouse, in vivo): 23.76
- improvement of the indices of lung damage (morphological) (M. bovis bovinus 8 [2]; mouse, in vivo): 2.56%

SMILES: CC[C@@H](CO)NCCN[C@@H](CC)CO [Ethambutol, ethambutol]
- decrease in CFU levels in the spleen (M. bovis bovinus 8 [1]; [13]): 33.3%
- decrease in coefficient of spleen weight (M. bovis bovinus 8 [1]; [13]): 22.1%
- decrease in the coefficient of liver weight (M. bovis bovinus 8 [1]; [13]): 8.9%
- increase in the index of lung damage (M. bovis bovinus 8 [1]; [13]): 4.0%
- increase in the index of lung weight (M. bovis bovinus 8 [1]; [13]): 3.1%
- increase in therapeutic effectiveness (average of indices of organ damage) (M. bovis bovinus 8 [1]; [14]): 11.44%
- effect of combination on therapeutic effectiveness, in words (M. bovis bovinus 8 [1]; [15]): increased the therapeutic effectiveness
- Scored sum of area: Breathing lung tissue (M. bovis bovinus 8 [2]; mice, 42 days of treatment): 9.78
- Scored sum of area: Dense lymphocytic infiltrate (M. bovis bovinus 8 [2]; mice, 42 days of treatment): 6.8
- Scored sum of area: Desquamative pneumonia (M. bovis bovinus 8 [2]; mice, 42 days of treatment): 6.93
- Scored sum of area: Polymorpho cellular infiltrate (M. bovis bovinus 8 [2]; mice, 42 days of treatment): 0.27
- Scored sum of area: Total lung tissue (M. bovis bovinus 8 [2]; mice, 42 days of treatment): 23.78
- therapeutic effectiveness of the combination, in words (M. bovis bovinus 8 [3]): weak therapeutic effectiveness

SMILES: NNC(=O)c1ccncc1 [Isoniazid, isonicotinic acid hydrazide]
- decrease in CFU levels in the spleen (M. bovis bovinus 8 [1]; [13]): 25%
- decrease in the coefficient of liver weight (M. bovis bovinus 8 [1]; [13]): 3.6%
- increase in therapeutic effectiveness (average of indices of organ damage) (M. bovis bovinus 8 [1]; [14]): 13.9%
- effect of combination on therapeutic effectiveness, in words (M. bovis bovinus 8 [1]; [15]): increased the therapeutic effectiveness
- LD50 [4]: 150 mg/kg
- Scored sum of area: Breathing lung tissue (M. bovis bovinus 8 [2]; mice, 42 days of treatment): 17.5
- Scored sum of area: Dense lymphocytic infiltrate (M. bovis bovinus 8 [2]; mice, 42 days of treatment): 1.59
- Scored sum of area: Desquamative pneumonia (M. bovis bovinus 8 [2]; mice, 42 days of treatment): 3.52
- Scored sum of area: Polymorpho cellular infiltrate (M. bovis bovinus 8 [2]; mice, 42 days of treatment): 0.86
- Scored sum of area: Total lung tissue (M. bovis bovinus 8 [2]; mice, 42 days of treatment): 23.47
- Body weight % of initial (M. bovis bovinus 8 [5]; rabbits, 15 mg/kg per os): −6.99%
- Lethality % of initial number (M. bovis bovinus 8 [5]; rabbits, 15 mg/kg per os): 0%
- Lethality ITE (%) (M. bovis bovinus 8 [5]; [16]): +100.0%
- Body weight ITE (%) (M. bovis bovinus 8 [5]; [16]): +74.67%
- Body weight ITE (%) (M. bovis bovinus 8 [5]; rabbits, 15 mg/kg per os, vs infection control, listed as isoniazid): 74.67%

SMILES: CC1COc2c(N3CCN(C)CC3)c(F)cc3c(=O)c(C(=O)O)cn1c23 (centres unmarked) [Ofloxacin]
- decrease in indices (of therapeutic effectiveness), range over indices (M. bovis bovinus 8 [1]; [13]): 4.65% to 11.9
- increase in the index of lung damage (M. bovis bovinus 8 [1]; [13]): 2.6%
- decrease in therapeutic effectiveness (M. bovis bovinus 8 [1]; [14]): 6.2%
- Scored sum of area: Breathing lung tissue (M. bovis bovinus 8 [2]; mice, 42 days of treatment): 7.32
- Scored sum of area: Dense lymphocytic infiltrate (M. bovis bovinus 8 [2]; mice, 42 days of treatment): 6.32
- Scored sum of area: Desquamative pneumonia (M. bovis bovinus 8 [2]; mice, 42 days of treatment): 10.49
- Scored sum of area: Polymorpho cellular infiltrate (M. bovis bovinus 8 [2]; mice, 42 days of treatment): 0.04
- Scored sum of area: Total lung tissue (M. bovis bovinus 8 [2]; mice, 42 days of treatment): 24.17

SMILES: CO[C@H]1/C=C/O[C@@]2(C)Oc3c(C)c(O)c4c(c3C2=O)C2=NC3(CCN(CC(C)C)CC3)NC2=C(NC(=O)/C(C)=C\C=C\[C@H](C)[C@H](O)[C@@H](C)[C@@H](O)[C@@H](C)[C@H](OC(C)=O)[C@@H]1C)C4=O [Rifabutin, rifabutin]
- decrease in coefficient of lung weight (M. bovis bovinus 8 [1]; [13]): 12.4%
- decrease in coefficient of spleen weight (M. bovis bovinus 8 [1]; [13]): 20.6%
- increase in the coefficient of liver weight (M. bovis bovinus 8 [1]; [13]): 0.4%
- increase in the index of lung damage (M. bovis bovinus 8 [1]; [13]): 7.4%
- increase in therapeutic effectiveness (average of indices of organ damage) (M. bovis bovinus 8 [1]; [14]): 7.68%
- effect of combination on therapeutic effectiveness, in words (M. bovis bovinus 8 [1]; [15]): increased the therapeutic effectiveness
- Scored sum of area: Breathing lung tissue (M. bovis bovinus 8 [2]; mice, 42 days of treatment): 23.27
- Scored sum of area: Dense lymphocytic infiltrate (M. bovis bovinus 8 [2]; mice, 42 days of treatment): 0.53
- Scored sum of area: Desquamative pneumonia (M. bovis bovinus 8 [2]; mice, 42 days of treatment): 0.16
- Scored sum of area: Polymorpho cellular infiltrate (M. bovis bovinus 8 [2]; mice, 42 days of treatment): 0
- Scored sum of area: Total lung tissue (M. bovis bovinus 8 [2]; mice, 42 days of treatment): 23.96

SMILES: CO[C@H]1/C=C/O[C@@]2(C)Oc3c(C)c(O)c4c(O)c(c(/C=N/N5CCN(C)CC5)c(O)c4c3C2=O)NC(=O)/C(C)=C\C=C\[C@H](C)[C@H](O)[C@@H](C)[C@@H](O)[C@@H](C)[C@H](OC(C)=O)[C@@H]1C [Rifampicin, rifampicin]
- decrease in coefficient of lung weight (M. bovis bovinus 8 [1]; [13]): 18.2%
- decrease in coefficient of spleen weight (M. bovis bovinus 8 [1]; [13]): 34.6%
- decrease in the coefficient of liver weight (M. bovis bovinus 8 [1]; [13]): 1.6%
- increase in CFU levels (M. bovis bovinus 8 [1]; [13]): 6.19%
- increase in therapeutic effectiveness (average of indices of organ damage) (M. bovis bovinus 8 [1]; [14]): 9.66%
- Scored sum of area: Breathing lung tissue (M. bovis bovinus 8 [2]; mice, 42 days of treatment): 19.65
- Scored sum of area: Desquamative pneumonia (M. bovis bovinus 8 [2]; mice, 42 days of treatment): 1.94
- Scored sum of area: Polymorpho cellular infiltrate (M. bovis bovinus 8 [2]; mice, 42 days of treatment): 0
- Scored sum of area: Total lung tissue (M. bovis bovinus 8 [2]; mice, 42 days of treatment): 23.96

SMILES: NC(=S)NN=Cc1ccncc1.[O-][Cl+3]([O-])([O-])O [new treatment]
- tuberculostatic activity relative to the prototype drug (higher) [6]: 200 times
- time for which appearance, physical characteristics and biological properties are stable (Stability during storage): 3 years
- complete inhibition (MIC) (M. bovis bovinus 8 [7]): 1.56 µg/mL
- concentration of primary inhibition of mycobacterial growth (++) (M. bovis bovinus 8 [7]): 0.19 µg/mL
- Body weight % of initial (M. bovis bovinus 8 [8]; 10 mg/kg): 81.9%
- Lethality % (M. bovis bovinus 8 [8]; 10 mg/kg): 62.5%
- Body weight % of initial (M. bovis bovinus 8 [8]; 20 mg/kg): 94.5%
- Lethality % (M. bovis bovinus 8 [8]; 20 mg/kg): 25.0%
- Body weight % of initial (M. bovis bovinus 8 [8]; 30 mg/kg): 92.6%
- Lethality % (M. bovis bovinus 8 [8]; 30 mg/kg): 2.4%
- effect on the growth of gram-positive and gram-negative microorganisms [9]: did not affect the growth
- Degree of mycobacterial growth (M. tuberculosis Erdman; 0.19 μg/ml in medium): ++
- Degree of mycobacterial growth (M. tuberculosis Erdman; 0.39 μg/ml in medium): ++
- Degree of mycobacterial growth (M. tuberculosis Erdman; 0.78 μg/ml in medium): ++
- MIC (M. tuberculosis Erdman; M. tuberculosis Erdman): 3.125 µg/mL
- Degree of mycobacterial growth [10, 17]: ++
- MIC ([10]; M. tuberculosis “Academia”): 6.25 µg/mL
- Degree of mycobacterial growth (M. tuberculosis H37Rv; [17]): ++
- MIC (M. tuberculosis H37Rv; M. tuberculosis H37RV): 6.25 µg/mL
- Body weight % of initial (M. bovis bovinus 8 [5]; rabbit, in vivo, 20 mg/kg): −7.13%
- Lethality % of initial number (M. bovis bovinus 8 [5]; rabbit, in vivo, 20 mg/kg): 0%
- Lethality ITE (%) (M. bovis bovinus 8 [5]; rabbit, in vivo, 20 mg/kg): +100.0%
- toxicity relative to the prototype drug (lower) (General toxicity; in comparison with the prototype drug): 2.4 times
- damage to vital organs and systems (General toxicity; in vivo): neither a significant structural and functional damage to vital organs and systems
- toxicity, in words (General toxicity; in vivo): low toxic agent
- allergenic properties [11]: no
- immunotoxic properties [11]: no
- mutagenic properties [11]: no
- dose with teratogenic effect (non life-threatening skeletal malformations, delay in ossification, edema, subcutaneous hemorrhage) ([12]; administered during organogenesis, five times the therapeutic dose): 100 mg/kg
- effect on the reproductive function and offspring development in animals ([12]; continued administration): no effect
- alterations in placenta development and sex formation ([12]; in vivo): no alterations
- embryo toxicity ([12]; mainly if administered during organogenesis): moderate embryo toxicity

— patent US9750727B2 (priority 2010, dated 2017)
